Source: ChEMBL document CHEMBL5729575, “Alkynyl-substituted heterocyclic compound, preparation method therefor and medical use thereof” (2023)

Legend:
[1] = target: Fibroblast growth factor receptor 2 (Homo sapiens, UniProt P21802); assay: FGFR2 Activity Inhibition Test: The reaction buffer contains the following components: 5-fold diluted enzymatic buffer/kinase 5x(Cisbio, Cat No. 62EZBFDD)(its main component is 50nM HEPES, pH 7.0), 5mM MgCl2 and 1 mM DTT, a human recombinant FGFR2 catalytic domain protein (amino acid 400-821) which was purchased from Yiqiao Shenzhou Biotech Co. Ltd., a 0.45ng/uL kinase solution diluted by the …
[2] = target: Fibroblast growth factor receptor 3 (Homo sapiens, UniProt P22607); assay: FGFR3 Activity Inhibition Test: The reaction buffer contains the following components: 5-fold diluted enzymatic buffer/kinase 5x(Cisbio, Cat No. 62EZBFDD)(its main component is 50nM HEPES, pH 7.0), 5mM MgCl2 and 1 mM DTT, a […] which was purchased from Yiqiao Shenzhou Biotech Co. Ltd., a 0.3 ng/uL kinase solution diluted by the …
Fibroblast growth factor receptor 3, sequence (P22607 whole entry): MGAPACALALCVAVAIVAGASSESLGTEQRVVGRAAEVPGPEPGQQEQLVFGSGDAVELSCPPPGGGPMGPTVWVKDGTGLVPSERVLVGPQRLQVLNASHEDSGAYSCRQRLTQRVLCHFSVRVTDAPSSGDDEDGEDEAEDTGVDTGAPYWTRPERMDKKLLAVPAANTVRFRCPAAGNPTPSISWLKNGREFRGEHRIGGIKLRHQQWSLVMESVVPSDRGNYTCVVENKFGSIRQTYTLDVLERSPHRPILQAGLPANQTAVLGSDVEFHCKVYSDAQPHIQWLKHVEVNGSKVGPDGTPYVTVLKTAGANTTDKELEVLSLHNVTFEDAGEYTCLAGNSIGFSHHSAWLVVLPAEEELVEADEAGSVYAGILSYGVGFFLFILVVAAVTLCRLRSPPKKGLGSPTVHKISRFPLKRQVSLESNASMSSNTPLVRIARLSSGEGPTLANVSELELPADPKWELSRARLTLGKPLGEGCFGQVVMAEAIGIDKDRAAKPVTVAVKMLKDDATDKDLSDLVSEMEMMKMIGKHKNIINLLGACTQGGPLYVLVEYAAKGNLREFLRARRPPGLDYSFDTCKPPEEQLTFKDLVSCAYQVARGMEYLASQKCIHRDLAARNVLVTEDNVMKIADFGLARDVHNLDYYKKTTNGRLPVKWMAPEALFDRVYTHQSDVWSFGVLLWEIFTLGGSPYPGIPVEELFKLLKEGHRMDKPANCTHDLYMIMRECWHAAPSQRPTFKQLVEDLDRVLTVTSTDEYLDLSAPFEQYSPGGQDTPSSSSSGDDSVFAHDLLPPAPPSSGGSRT

Fibroblast growth factor receptor 2, sequence (P21802 whole entry, the tested form may be a part): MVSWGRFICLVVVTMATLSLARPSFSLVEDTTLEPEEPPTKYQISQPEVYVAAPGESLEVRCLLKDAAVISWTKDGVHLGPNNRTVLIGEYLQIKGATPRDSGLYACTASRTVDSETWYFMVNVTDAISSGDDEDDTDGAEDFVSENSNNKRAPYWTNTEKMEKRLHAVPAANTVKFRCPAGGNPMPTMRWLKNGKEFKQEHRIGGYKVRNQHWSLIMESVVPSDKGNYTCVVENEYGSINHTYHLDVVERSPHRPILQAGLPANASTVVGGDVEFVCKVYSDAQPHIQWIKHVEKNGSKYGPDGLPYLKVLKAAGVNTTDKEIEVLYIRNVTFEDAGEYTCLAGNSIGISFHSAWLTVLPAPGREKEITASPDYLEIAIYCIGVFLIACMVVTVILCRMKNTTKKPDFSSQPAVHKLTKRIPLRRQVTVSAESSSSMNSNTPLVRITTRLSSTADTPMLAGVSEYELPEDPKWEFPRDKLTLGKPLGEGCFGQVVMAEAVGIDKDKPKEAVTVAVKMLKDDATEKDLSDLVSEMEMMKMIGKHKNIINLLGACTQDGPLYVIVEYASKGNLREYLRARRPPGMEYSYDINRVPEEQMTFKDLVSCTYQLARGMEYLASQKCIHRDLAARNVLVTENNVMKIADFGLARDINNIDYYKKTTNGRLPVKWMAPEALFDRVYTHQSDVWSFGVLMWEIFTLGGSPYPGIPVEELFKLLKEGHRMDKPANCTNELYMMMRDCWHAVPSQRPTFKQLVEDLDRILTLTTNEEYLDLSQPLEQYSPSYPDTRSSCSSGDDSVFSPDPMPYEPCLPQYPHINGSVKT

IC50 [1]: < 10 nM
IC50 [2]: < 10 nM
Structure (SMILES): CC#CC(=O)N1CC[C@H](n2nc(C#Cc3cc(OC)cc(OC)c3)c(C(N)=O)c2N)C1
